Source: publication PMC3596085 (International journal for parasitology, drugs and drug …, 2012)
Like-named read-outs stand apart in the source and are kept apart here.

Key:
human CYP51 [1] = assay: Reconstitution of CYP51 activity in vitro; assay type: biochemical; conditions: 60′ reaction, lanosterol
[2] = test system: NIH/3T3 mouse embryonic fibroblasts; assay: Growth inhibition assay using 5-bromodeoxyuridine incorporation; assay type: cell-based; conditions: 50 μM, 24 h treatment, BrdU incorporation, vs DMSO
human CYP3A4 [3] = target: T1, human CYP3A4 (Homo sapiens, UniProt P08684)
T. cruzi CYP51 [4] = target: T. cruzi CYP51 (Trypanosoma cruzi, UniProt Q7Z1V1); assay: CYP51 spectral titration; assay type: binding
[5] = VNI oral pharmacokinetics in mouse plasma; assay type: in vivo; conditions: 25 mg/kg
[6] = Acute mice toxicity study; assay type: in vivo, mouse; conditions: female, Swiss Webster, mouse, in vivo, po
[7] = test system: Female Swiss Webster mice; assay: Acute mice toxicity study; assay type: in vivo, mouse; conditions: oral, up to 400 mg/kg, up to 48 h
T. cruzi CYP51 [8] = conditions: standard CYP51 reaction conditions; ref Lepesheva et al., 2007; cited from earlier work
T. brucei CYP51 = conditions: standard CYP51 reaction conditions; ref Lepesheva et al., 2007; cited from earlier work
human CYP51 [9] = conditions: standard CYP51 reaction conditions; ref Lepesheva et al., 2008; cited from earlier work
[10] = test system: T. cruzi CYP51 gene expression; conditions: ref Lepesheva et al., 2010a; cited from earlier work
Trypanosoma cruzi = conditions: ref Villalta et al., submitted for publication; cited from earlier work
T. brucei = conditions: ref Lepesheva et al., 2010b; cited from earlier work
human CYP3A4 [11] = target: T1, human CYP3A4; assay: Inhibitory effect on CYP3A4
[12] = Growth inhibition assay using 5-bromodeoxyuridine incorporation; assay type: cell-based, mouse; conditions: mouse

T1 sequence (P08684 whole entry): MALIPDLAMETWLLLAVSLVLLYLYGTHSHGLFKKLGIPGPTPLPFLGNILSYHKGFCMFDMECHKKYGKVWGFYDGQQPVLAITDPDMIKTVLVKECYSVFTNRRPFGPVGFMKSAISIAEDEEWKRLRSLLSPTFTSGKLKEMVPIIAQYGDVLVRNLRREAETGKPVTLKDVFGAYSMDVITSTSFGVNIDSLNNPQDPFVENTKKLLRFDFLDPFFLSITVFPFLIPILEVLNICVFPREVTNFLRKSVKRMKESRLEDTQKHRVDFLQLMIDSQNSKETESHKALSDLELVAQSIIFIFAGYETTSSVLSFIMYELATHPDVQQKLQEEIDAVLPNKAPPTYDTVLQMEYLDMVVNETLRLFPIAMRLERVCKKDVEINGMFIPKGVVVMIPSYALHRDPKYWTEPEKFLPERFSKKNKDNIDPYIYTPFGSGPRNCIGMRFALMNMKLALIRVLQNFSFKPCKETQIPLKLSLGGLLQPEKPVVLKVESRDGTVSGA
Sequence of T. cruzi CYP51 (Trypanosoma cruzi, UniProt Q7Z1V1) (Q7Z1V1 whole entry): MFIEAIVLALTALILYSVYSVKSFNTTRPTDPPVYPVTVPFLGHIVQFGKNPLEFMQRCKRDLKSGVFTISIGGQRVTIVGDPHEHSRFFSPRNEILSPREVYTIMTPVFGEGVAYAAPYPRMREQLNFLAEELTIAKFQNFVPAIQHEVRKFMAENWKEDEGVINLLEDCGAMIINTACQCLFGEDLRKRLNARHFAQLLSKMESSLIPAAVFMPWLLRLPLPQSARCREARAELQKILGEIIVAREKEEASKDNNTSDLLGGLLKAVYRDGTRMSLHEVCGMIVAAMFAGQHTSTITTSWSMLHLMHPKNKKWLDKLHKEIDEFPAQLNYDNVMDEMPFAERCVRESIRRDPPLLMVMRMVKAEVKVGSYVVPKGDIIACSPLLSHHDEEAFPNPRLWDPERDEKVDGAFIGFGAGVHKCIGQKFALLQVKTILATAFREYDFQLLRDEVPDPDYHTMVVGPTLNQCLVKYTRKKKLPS

Molecule: O=C(N[C@H](Cn1ccnc1)c1ccc(Cl)cc1Cl)c1ccc(-c2nnc(-c3ccccc3)o2)cc1 (single isomer, unassigned) [VNI S-enantiomer]
- CYP51 inhibition, Human (inhibitor/enzyme molar ratio for 50% inhibition) (human CYP51 [1]): >200
- Mammalian cell growth: % of viable 3T3 cells at 50 μM [2]: 77.1 ± 2.6%
- IC50 (human CYP3A4 [3]): 0.29 ± 0.019 µM

Molecule: O=C(N[C@@H](Cn1ccnc1)c1ccc(Cl)cc1Cl)c1ccc(-c2nnc(-c3ccccc3)o2)cc1 [VNI, (R)-N-(1-(2,4-dichlorophenyl)-2-(1H-imidazol-1-yl)ethyl)-4-(5-phenyl-1,3,4-oxadiazol-2-yl)benzamide]
- Kd (T. cruzi CYP51 [4]): 0.09 ± 0.01 µM
- CYP51 inhibition, Human (inhibitor/enzyme molar ratio for 50% inhibition) (human CYP51 [1]): >200
- Mammalian cell growth: % of viable 3T3 cells at 50 μM ([2]; 50 µM): 76.8 ± 2.1%
- concentration at 2 h [5]: 40 µM
- concentration at 8 h [5]: > 20 µM
- NOAEL at 48 h [6]: 400 mg/kg
- mortality [7]: neither leads to mortality
- inhibition of T. cruzi CYP51 activity at 1:1 molar ratio to the enzyme (T. cruzi CYP51 [8]): completely inhibit
- inhibition of T. brucei CYP51 activity at 1:1 molar ratio to the enzyme (T. brucei CYP51): completely inhibit
- inhibition of the human CYP51 ortholog (human CYP51 [9]): do not inhibit
- induction of T. cruzi CYP51 gene expression [10]: do not induce
- effect in the murine model of Chagas disease (Trypanosoma cruzi): Curative effect
- parasitemia in the mouse model of T. brucei infection (T. brucei): slows down parasitemia
- IC50 (human CYP3A4 [11]): 0.405 ± 0.023 µM

Molecule: CC(=O)N1CCN(c2ccc(OCC3COC(Cn4ccnc4)(c4ccc(Cl)cc4Cl)O3)cc2)CC1 (stereo not drawn) [Ketoconazole, reference compound]
- viability at 24 h, 50 µM [12]: 0%

Molecule: VNI/VNF combination
- CYP51 inhibition, Human (inhibitor/enzyme molar ratio for 50% inhibition) (human CYP51 [1]): 15 ± 0.9
- Mammalian cell growth: % of viable 3T3 cells at 50 μM [2]: 77.2 ± 6.3%
- IC50 (human CYP3A4 [3]): 3.58 ± 0.271 µM
